Assay results from publication PMC8058351, “Discovery of Kasugamycin as a Potent Inhibitor of Glycoside Hydrolase Family 18 Chitinases” (Frontiers in Molecular Biosciences, 2021).

Assays:
AMCase [1] = biological target: T1, AMCase (Homo sapiens, UniProt Q9BZP6); assay: Inhibitory activity determination with MU-β-(GlcNAc)2, Dixon plots; type: biochemical
T1 construct: the catalytic domains of OfChtI from Ostrinia furnacalis (O. furnacalis), human HsCht and acidic mammalian chitinase (AMCase); made in house; host or cells: Pichia pastoris GS115 (secreted)
Text: (§1) The recombinant GH18 chitinases for inhibitory activity evaluation including OfChi-h and the catalytic domains of OfChtI from Ostrinia furnacalis (O. furnacalis), human HsCht and acidic mammalian chitinase (AMCase) were extracellularly expressed in Pichia pastoris GS115. SmChiA from Serratia marcescens was expressed in Escherichia coli BL21 (DE3). All the proteins were purified from the culture medium by immobilized metal affinity chromatography (IMAC) as described previously ([Chen et al., 2014]). The purities of the target proteins were analyzed by SDS-PAGE followed by Coomassie Brilliant Blue R-250 staining.
(§2) 20 nM enzyme was incubated with 10 μL substrate [0.2 μM MU-β-(GlcNAc)2] in 20 mM sodium phosphate buffer (pH 6.0 for OfChi-h, OfChtI, HsCht and SmChiA, and pH 5.2 for AMCase) containing 2 μL inhibitor at 30°C. The reaction in the absence of inhibitor and substrate was used as the control. After 30 min, an equal volume of 0.5 M Na2CO3 was added to the reaction mixture to stop the reaction, and the fluorescence of the released MU was quantitated using an Infinite® 200 PRO microplate reader (Tecan, Swiss) with excitation and emission wavelengths of 360 and 450 nm, respectively. Experiments were performed in triplicate. For the determination of the mode of inhibition and the inhibition constant (K i) value, the reaction mixtures contained three MU-β-(GlcNAc)2 concentrations (5, 10 and 20 μM for OfChi-h, AMCase and SmChiA; 5, 7.5 and 10 μM for HsCht; and 1, 2 and 4 μM for OfChtI). The inhibitor concentration varied according to the inhibitory activity. The Ki values and types of inhibition were determined by linear fitting of data in Dixon plots.

HsCht [2] = biological target: T2, HsCht (Homo sapiens, UniProt Q13231); assay: as above; type: biochemical
T2 construct: the catalytic domains of OfChtI from Ostrinia furnacalis (O. furnacalis), human HsCht and acidic mammalian chitinase (AMCase); made in house; host or cells: Pichia pastoris GS115 (secreted)
Text: as §1, §2

OfChi-h [3] = biological target: T3, OfChi-h (Ostrinia furnacalis, UniProt Q4AE59); assay: as above; type: biochemical
T3 construct: made in house; host or cells: Pichia pastoris GS115 (secreted)
Text: as §1, §2

OfChtI [4] = biological target: T4, OfChtI (Ostrinia furnacalis, UniProt Q2V6H4); assay: as above; type: biochemical
Text: as §1, §2

SmChiA [5] = biological target: T5, SmChiA (Serratia marcescens, UniProt P07254); assay: as above; type: biochemical
T5 construct: made in house; host or cells: Escherichia coli BL21 (DE3)
Text: as §1, §2

AMCase [6] = biological target: T1, AMCase; assay: Tryptophan fluorescence quenching spectroscopy; type: binding
Text: as §1
(§3) All tryptophan fluorescence spectroscopy experiments were performed using the Infinite® 200 PRO microplate reader (Tecan, Swiss). The excitation wavelength was fixed to 285 nm and emission spectra were collected between 320 and 450 nm with a slit width of 2 nm. The temperature was maintained at 30°C. Fluorescence quenching experiments were performed in a 100 μL mixture containing 1 μM protein in the 20 mM sodium phosphate buffer (pH 6.0 for OfChi-h, OfChtI, HsCht and SmChiA, and pH 5.2 for AMCase), and by the successive addition of 1 μL compounds stock solution. The inhibitor concentration varied according to the enzyme activity. The dissociation constant (K d) value was analyzed by nonlinear regression with the “One Site-Specific Binding” model using GraphPad Prism 7.04.

HsCht [7] = biological target: T2, HsCht; assay: Tryptophan fluorescence quenching spectroscopy; type: binding
Text: as §1, §3

OfChi-h [8] = biological target: T3, OfChi-h; assay: Tryptophan fluorescence quenching spectroscopy; type: binding
Text: as §1, §3

OfChtI [9] = biological target: T4, OfChtI; assay: Tryptophan fluorescence quenching spectroscopy; type: binding
Text: as §1, §3

SmChiA [10] = biological target: T5, SmChiA; assay: Tryptophan fluorescence quenching spectroscopy; type: binding
Text: as §1, §3

T1 sequence (Q9BZP6 22-390 limits assumed): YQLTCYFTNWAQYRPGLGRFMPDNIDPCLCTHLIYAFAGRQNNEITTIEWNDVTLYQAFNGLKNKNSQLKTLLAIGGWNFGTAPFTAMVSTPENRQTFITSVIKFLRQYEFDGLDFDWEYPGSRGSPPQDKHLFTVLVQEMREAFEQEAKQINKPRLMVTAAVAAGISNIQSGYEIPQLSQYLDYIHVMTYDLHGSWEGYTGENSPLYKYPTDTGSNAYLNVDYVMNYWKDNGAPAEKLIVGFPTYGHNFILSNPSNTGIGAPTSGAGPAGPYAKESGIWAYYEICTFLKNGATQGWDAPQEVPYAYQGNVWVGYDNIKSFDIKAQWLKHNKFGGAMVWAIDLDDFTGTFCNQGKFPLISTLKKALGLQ
T3 sequence (Q4AE59 18-553): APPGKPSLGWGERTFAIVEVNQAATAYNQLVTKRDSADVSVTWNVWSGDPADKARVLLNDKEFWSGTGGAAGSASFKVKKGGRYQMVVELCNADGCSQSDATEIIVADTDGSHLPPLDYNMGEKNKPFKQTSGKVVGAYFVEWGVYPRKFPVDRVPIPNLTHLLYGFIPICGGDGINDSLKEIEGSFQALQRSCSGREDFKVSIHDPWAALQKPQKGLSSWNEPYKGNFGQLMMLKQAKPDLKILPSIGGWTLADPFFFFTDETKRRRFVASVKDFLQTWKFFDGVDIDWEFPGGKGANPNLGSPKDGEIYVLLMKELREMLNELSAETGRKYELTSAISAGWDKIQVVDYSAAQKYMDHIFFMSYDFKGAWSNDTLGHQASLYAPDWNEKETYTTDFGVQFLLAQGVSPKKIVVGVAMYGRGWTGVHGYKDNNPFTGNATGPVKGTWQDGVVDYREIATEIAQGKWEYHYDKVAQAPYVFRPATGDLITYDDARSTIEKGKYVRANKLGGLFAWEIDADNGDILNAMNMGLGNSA
T5 sequence (P07254 24-563): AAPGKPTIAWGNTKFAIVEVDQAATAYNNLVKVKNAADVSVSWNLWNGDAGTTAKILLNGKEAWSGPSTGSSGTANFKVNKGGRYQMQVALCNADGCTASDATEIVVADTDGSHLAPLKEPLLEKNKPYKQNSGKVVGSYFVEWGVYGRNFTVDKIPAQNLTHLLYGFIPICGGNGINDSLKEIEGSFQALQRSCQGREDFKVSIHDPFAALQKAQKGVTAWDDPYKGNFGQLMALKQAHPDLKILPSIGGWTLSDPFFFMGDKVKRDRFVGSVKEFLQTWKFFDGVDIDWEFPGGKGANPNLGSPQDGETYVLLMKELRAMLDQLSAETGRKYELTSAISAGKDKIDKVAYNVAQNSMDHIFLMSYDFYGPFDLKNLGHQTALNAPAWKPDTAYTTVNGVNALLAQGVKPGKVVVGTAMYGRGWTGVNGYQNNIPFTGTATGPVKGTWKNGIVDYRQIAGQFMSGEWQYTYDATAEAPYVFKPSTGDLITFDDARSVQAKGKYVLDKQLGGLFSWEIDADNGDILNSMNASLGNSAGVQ
T2 sequence (Q13231 22-388 limits assumed): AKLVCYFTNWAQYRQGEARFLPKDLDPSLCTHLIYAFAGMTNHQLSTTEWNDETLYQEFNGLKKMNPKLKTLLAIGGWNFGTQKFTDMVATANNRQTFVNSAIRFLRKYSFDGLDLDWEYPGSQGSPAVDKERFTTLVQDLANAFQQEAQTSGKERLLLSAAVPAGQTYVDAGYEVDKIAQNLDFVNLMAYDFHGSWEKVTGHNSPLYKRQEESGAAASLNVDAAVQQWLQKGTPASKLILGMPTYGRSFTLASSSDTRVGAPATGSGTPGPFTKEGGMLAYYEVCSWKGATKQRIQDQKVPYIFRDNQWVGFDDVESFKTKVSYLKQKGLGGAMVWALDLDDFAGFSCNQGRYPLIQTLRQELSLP
T4 sequence (Q2V6H4 19-407): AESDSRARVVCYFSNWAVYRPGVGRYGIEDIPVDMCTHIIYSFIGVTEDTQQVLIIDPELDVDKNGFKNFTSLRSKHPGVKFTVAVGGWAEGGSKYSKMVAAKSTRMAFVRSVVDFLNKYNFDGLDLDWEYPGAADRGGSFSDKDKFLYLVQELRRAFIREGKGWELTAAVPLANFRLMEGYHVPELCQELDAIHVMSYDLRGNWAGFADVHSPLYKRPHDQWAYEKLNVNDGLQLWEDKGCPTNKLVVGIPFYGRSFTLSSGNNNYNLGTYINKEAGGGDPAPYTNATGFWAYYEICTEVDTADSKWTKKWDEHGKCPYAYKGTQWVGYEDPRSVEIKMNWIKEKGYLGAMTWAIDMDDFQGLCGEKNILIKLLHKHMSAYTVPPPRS

C[C@H]1O[C@H](O[C@H]2[C@H](O)[C@@H](O)[C@@H](O)[C@H](O)[C@@H]2O)[C@@H](N)C[C@@H]1NC(=N)C(=O)O [kasugamycin, Kasugamycin]
Ki (AMCase [1]): 6.27 µM
mode of inhibition (AMCase [1]; AMCase, inhibition kinetics): competitive
increase of K i in buffer containing 1.0 M NaCl (HsCht [2]; 1.0 M NaCl vs. standard buffer): 6 fold
Ki (HsCht [2]; K i in the buffer with 1.0 M NaCl, buffer containing 1.0 M NaCl): 1.62 µM
Ki (HsCht [2]; K i, 20 mM sodium phosphate buffer pH 6.0, 30°C): 0.25 µM
mode of inhibition (HsCht [2]; inhibition kinetics): competitive
Ki (OfChi-h [3]): 2.7 µM
mode of inhibition (OfChi-h [3]; OfChi-h, inhibition kinetics): competitive
Ki (OfChtI [4]): 0.47 µM
mode of inhibition (OfChtI [4]; OfChtI, inhibition kinetics): competitive
inhibition at 10 µM (OfChtI [4]; at 10 μM, preliminary screening of a natural products library, read-out: inhibition against OfChtI): 92.5%
Ki (SmChiA [5]): 29 µM
mode of inhibition (SmChiA [5]; SmChiA, inhibition kinetics): competitive
Kd (AMCase [6]): 15.8 µM
Kd (HsCht [7]): 0.92 µM
Kd (OfChi-h [8]): 11.5 µM
Kd (OfChtI [9]): 3.96 µM
Kd (SmChiA [10]): 34.1 µM
